What was measured:
[1] = tested on: S. Infantis S13; assay: MIC for further growth of biofilm cells, preformed biofilm (A625nm); type: cell-based, Salmonella enterica Infantis; settings: for MICBC80: ≥80% inhibition, 18 h preformed biofilm, 20 h with substance
Description: (§1) Ten concentrations of NAC, RLs, and UA were tested to determine the minimum inhibitory concentration for planktonic growth, and subsequently, the six highest concentrations were applied on preformed biofilms to evaluate the biofilm eradication ability of the compounds. MIC was defined as the lowest substance concentration able to inhibit at least 80% of microbial growth (MICPC80 for planktonic cells, MICBC80 for further growth of biofilm cells), inhibit 80% of metabolic activity (MICBM80 for biofilm metabolic activity, MICMPB80 for metabolic activity of preformed biofilm), prevent biofilm formation by at least 80% (MICBF80 for biofilm formation), or reduce a preformed biofilm by at least 80% (MICBR80 for biofilm reduction). The results of MICs are summarized in Table 1 (planktonic cells) and Table 2 (biofilm-associated cells).
(§2) The determination of MICs was performed according to Chlumsky et al.. Briefly, 96-well flat-bottomed microtiter plates were inoculated with 75 µL (for biofilm formation) or 100 µL (for preformed biofilm) of bacterial suspension (A625nm 0.08 to 0.1) in technical triplicates and were then carefully mixed with the dilution series of the test substances (24 h cultivation at 25 °C for S. Infantis, 37 °C for other strains) or were directly cultivated to preform biofilms (18 h). For a positive control of bacterial growth, the inoculum was mixed with a pure sterile medium. Furthermore, the sterile medium was included in the plate as a marker of potential microbial contamination. To evaluate planktonic cells growth (MICPC80) and further growth of biofilm cells (MICBC80), the optical density of the content of the microtiter plates was measured spectrophotometrically at 625 nm before and after 24 h (for biofilm formation) of cultivation or before and after additional 20 h incubation with the tested compound (for preformed biofilm). The difference of A625nm was considered as a measure of the ability of cells to grow in the presence of the tested substances. To evaluate the inhibition of biofilm formation (MICBF80) and reduction in preformed biofilms (MICBR80), biomass was quantified using crystal violet staining, and its metabolic activity (MICBM80 and MICMPB80) was estimated by using the MTT (thiazyl tetrazolium bromide, Sigma-Aldrich, USA) reduction assay, both measured spectrophotometrically at 595 nm.
(§3) All inhibitions were calculated using the formula of Chlumsky et al. below (Equation (1)):(1) A625(595)nm inhibition (%)=A625(595)nm (control) – A625(595)nm(natural substance)/A625(595)nm (control)× 100 where A625(595)nm (control) is the absorbance of bacterial suspension/biofilm itself, and A625(595)nm(natural substance) is the absorbance of the bacterial suspension/biofilm with the added natural substance (NAC, RLs, and UA).
(§4) When the minimum inhibitory concentration could not be determined, the MIC was established as >the highest tested concentration for NAC, RLs, and UA.

[2] = tested on: S. Infantis S59; assay: as above; type: cell-based, Salmonella enterica Infantis; settings: for MICBC80: ≥80% inhibition, 18 h preformed biofilm, 20 h with substance
Description: as §1, §2, §3, §4

[3] = tested on: L. monocytogenes 164; assay: MIC for reduction of preformed biofilm (crystal violet staining); type: cell-based, Listeria monocytogenes; settings: for MICBR80: ≥80% reduction of preformed biofilm (18 h), 20 h with substance
Description: as §1, §2, §3, §4

[4] = tested on: S. aureus 1241; assay: CLSM analysis, biofilm prevention; type: cell-based, Staphylococcus aureus; settings: for Thickness (µm) MICBM80 / Thickness (µm) subCBM80: 24 h exposure; for Thickness (µm) MICBM80: substance at its MICBM80, mean ± SD; for Thickness (µm) subCBM80: substance at subinhibitory concentration, mean ± SD
Description: (§5) Biofilm prevention and removal analyses were performed using previously determined minimum inhibitory and subinhibitory concentrations for metabolic activity (MICBM80, subCBM80; MICMPB80, subCMPB80) of NAC, RLs, and UA specific for each tested strain. Selected concentrations were used to evaluate the inhibition of biofilm formation (biofilm prevention) and the reduction in previously formed biofilms (biofilm removal) for the same set of microorganisms, with the exception of S. Infantis, which was excluded from the analysis due to its inability to form biofilm in the selected microtiter plate. Biofilm prevention and removal were observed using CLSM with specific staining to distinguish between live and membrane-compromised cells. Images were analyzed to evaluate (i). the total volume of the biomass, (ii). ratios of live and membrane-compromised cells, and (iii). to calculate biofilm volume reduction for individual organisms after the respective treatment types. The total biofilm volume was normalized by the area of the well and expressed as an average biofilm thickness. Complete data are provided in Supplementary Materials (Tables S1–S8).
(§6) For both inhibition and reduction of biofilms, overnight cultures from BHI were diluted in TSB + 1% Glc to reach an absorbance of 0.08 to 0.1 at 625 nm. The inoculum (150 µL) was transferred into wells of the 96-well flat-bottomed Ibidiμ-Plate (Ibidi, Gräfelfing, Germany) and mixed with 150 µL of each of the three tested substances in technical quadruplicates, followed by incubation at 37 °C for 24 h. Simultaneously, the prepared bacterial suspensions were inoculated to an additional microtiter plate (200 µL) and allowed to form biofilm overnight (18 h at 37 °C). After the incubation, the content of the well was drained off, and 200 µL of each of the three tested substances was added to the plate, which was then incubated for an additional 20 h. The used concentrations of the substances represented the subinhibitory and minimum inhibitory concentrations for metabolic activity (subCBM80, MICBM80; subCMPB80, MICMPB80). Both setups contained a positive control of the bacterial growth (inoculum mixed with sterile TSB + 1% Glc medium) and a control monitoring microbial contamination (sterile medium). Non-treated wells were used as a positive control for comparison between non-treated and treated biofilm mass.
(§7) Prior to the imaging, the wells were stained with the LIVE/DEAD® BacLight™ Bacterial Viability Kit (Thermo Fisher Scientific, MA, USA) following the manufacturer’s guidelines and Drago et al.. Briefly, equal volumes of SYTO® 9 and propidium iodide were combined with the sterile distilled water to reach a final concentration of […]. The biofilm mass was stained using 300 µL of the staining solution per well followed by incubation at 37 °C in the dark for 15 min. Stained wells were washed once with sterile distilled water, which was then added to each well (300 µL). Images were acquired with an inverted Leica SP5 CLSM using a 1.25× dry objective (WD 3.7 mm, Z-resolution 27 µm, up to 24 Z-stacks per well) to visualize an entire well. Samples were kept at the cultivation conditions (37 °C, 5% CO2, 90% humidity) with an OkoLabs stage top environmental chamber (Oko Labs, PA, USA). Fluorophore excitation lasers and emission bandwidths were as follows: SYTO® 9 (ex/em 485/498 nm) 488 nm excitation, 495 to 550 nm emission collection; propidium iodide (ex/em 535/617 nm) 561 nm excitation, 595 to 650 nm emission collection. The laser beam scanned the visual field at a frequency of 600 Hz. The wells were captured in snapshots of 1024 × 1024 pixels representing the area of 153.76 mm^2.
(§8) All collected images were statistically evaluated to quantify biovolume utilizing the surface estimation procedure described in Parker et al.. […]

[5] = tested on: S. aureus 816; assay: CLSM analysis, biofilm prevention; type: cell-based, Staphylococcus aureus; settings: for Thickness (µm) MICBM80 / Thickness (µm) subCBM80: 24 h exposure; for Thickness (µm) MICBM80: substance at its MICBM80, mean ± SD; for Thickness (µm) subCBM80: substance at subinhibitory concentration, mean ± SD
Description: as §5, §6, §7, §8

[6] = 24 h, MIC and subinhibitory concentration

| Structure (SMILES) | MICBC80 [1] [µg/mL] | MICBC80 [2] | maximal achieved inhibition (MICBR80 not reached), biofilm reduction ([3]; preformed biofilm, within tested concentrations) [%] | MICBR80 [3] | proportion of membrane-compromised cells [4, 6] | Thickness (µm) MICBM80 [4] [µm] | Thickness (µm) subCBM80 [4] [µm] | Thickness (µm) MICBM80 [5] [µm] | Thickness (µm) subCBM80 [5] [µm] | maximal achieved inhibition (MICBC80 not reached) ([1]; within tested concentrations) [%] | maximal achieved inhibition (MICBC80 not reached) ([2]; within tested concentrations) [%] | proportion of membrane-compromised cells [5, 6] |
| --- | --- | --- | --- | --- | --- | --- | --- | --- | --- | --- | --- | --- |
| CC(=O)N[C@@H](CS)C(=O)O [NAC, N-Acetyl-L-cysteine] | 6250 | 12,500 µg/mL | 46 | > 100,000 µg/mL | up to 25% | 236 ± 50.5 | 212 ± 16.1 | 104 ± 67.8 | 181 ± 57.7 |  |  |  |
| CC(=O)c1c(O)c(C)c(O)c2c1OC1=CC(=O)C(C(C)=O)C(=O)C12C (single isomer, unassigned; (+)) [UA, (+)-usnic acid] | > 31.3 | > 31.3 µg/mL |  | 1.96 µg/mL |  | 367 ± 40.5 | 392 ± 21.7 | 237 ± 41.9 | 270 ± 21 | 33 | 31 | up to 15% |
